# Data published in ChEMBL document CHEMBL5715956, “Selective Targeting of Bromodomains of the Bromodomain-PHD Fingers Family Impairs Osteoclast Differentiation” (ACS Chem Biol, 2017).
# Key:
# [1] = molecular target: Bromodomain and PHD finger-containing protein 3 (Homo sapiens, UniProt Q9ULD4); assay: Inhibition of BRPF3 (unknown origin) incubated for 60 mins by alphascreen competitive assay
# [2] = molecular target: T1, Bromodomain and PHD finger-containing protein 3 (Homo sapiens) (UniProt Q9ULD4); assay: Binding affinity to BRPF3 (unknown origin) assessed as change in entropy at 12 uM by Isothermal titration calorimetry
# T1 sequence (whole entry): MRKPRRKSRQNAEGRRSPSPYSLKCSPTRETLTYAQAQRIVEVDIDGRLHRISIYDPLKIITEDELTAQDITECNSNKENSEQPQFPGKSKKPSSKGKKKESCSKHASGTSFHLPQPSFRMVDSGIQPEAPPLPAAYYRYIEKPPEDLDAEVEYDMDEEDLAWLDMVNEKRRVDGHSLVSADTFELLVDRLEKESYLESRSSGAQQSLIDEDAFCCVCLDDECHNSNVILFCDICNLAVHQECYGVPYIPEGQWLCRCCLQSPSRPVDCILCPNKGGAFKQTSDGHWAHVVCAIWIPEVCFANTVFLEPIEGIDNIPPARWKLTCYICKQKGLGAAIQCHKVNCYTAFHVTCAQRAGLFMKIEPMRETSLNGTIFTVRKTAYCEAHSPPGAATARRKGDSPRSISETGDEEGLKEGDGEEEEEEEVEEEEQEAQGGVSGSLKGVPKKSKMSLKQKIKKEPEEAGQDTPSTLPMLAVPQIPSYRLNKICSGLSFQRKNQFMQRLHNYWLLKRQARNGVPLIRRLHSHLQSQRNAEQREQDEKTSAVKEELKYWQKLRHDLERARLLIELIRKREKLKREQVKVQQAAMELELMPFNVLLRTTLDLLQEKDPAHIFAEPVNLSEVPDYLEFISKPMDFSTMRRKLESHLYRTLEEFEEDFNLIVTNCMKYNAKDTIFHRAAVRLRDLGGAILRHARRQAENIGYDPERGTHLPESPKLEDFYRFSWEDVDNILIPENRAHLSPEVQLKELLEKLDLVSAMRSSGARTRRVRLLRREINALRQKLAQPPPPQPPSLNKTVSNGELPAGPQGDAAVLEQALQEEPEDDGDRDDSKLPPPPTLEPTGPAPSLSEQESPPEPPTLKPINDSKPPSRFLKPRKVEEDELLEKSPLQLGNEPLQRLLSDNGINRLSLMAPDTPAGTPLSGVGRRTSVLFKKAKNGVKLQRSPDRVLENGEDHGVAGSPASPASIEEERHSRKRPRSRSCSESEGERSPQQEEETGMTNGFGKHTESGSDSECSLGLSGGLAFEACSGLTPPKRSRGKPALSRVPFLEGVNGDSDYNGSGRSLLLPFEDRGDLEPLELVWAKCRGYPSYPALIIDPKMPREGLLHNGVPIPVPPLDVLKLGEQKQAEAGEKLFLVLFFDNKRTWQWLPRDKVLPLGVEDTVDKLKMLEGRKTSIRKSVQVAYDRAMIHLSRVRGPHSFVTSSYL
# Peregrin (Homo sapiens) = molecular target: T2, Peregrin (Homo sapiens) (UniProt P55201); assay: Binding affinity to […] (unknown origin) assessed as change in entropy TdeltaS at 17 uM by Isothermal titration calorimetry
# T2 sequence (whole entry): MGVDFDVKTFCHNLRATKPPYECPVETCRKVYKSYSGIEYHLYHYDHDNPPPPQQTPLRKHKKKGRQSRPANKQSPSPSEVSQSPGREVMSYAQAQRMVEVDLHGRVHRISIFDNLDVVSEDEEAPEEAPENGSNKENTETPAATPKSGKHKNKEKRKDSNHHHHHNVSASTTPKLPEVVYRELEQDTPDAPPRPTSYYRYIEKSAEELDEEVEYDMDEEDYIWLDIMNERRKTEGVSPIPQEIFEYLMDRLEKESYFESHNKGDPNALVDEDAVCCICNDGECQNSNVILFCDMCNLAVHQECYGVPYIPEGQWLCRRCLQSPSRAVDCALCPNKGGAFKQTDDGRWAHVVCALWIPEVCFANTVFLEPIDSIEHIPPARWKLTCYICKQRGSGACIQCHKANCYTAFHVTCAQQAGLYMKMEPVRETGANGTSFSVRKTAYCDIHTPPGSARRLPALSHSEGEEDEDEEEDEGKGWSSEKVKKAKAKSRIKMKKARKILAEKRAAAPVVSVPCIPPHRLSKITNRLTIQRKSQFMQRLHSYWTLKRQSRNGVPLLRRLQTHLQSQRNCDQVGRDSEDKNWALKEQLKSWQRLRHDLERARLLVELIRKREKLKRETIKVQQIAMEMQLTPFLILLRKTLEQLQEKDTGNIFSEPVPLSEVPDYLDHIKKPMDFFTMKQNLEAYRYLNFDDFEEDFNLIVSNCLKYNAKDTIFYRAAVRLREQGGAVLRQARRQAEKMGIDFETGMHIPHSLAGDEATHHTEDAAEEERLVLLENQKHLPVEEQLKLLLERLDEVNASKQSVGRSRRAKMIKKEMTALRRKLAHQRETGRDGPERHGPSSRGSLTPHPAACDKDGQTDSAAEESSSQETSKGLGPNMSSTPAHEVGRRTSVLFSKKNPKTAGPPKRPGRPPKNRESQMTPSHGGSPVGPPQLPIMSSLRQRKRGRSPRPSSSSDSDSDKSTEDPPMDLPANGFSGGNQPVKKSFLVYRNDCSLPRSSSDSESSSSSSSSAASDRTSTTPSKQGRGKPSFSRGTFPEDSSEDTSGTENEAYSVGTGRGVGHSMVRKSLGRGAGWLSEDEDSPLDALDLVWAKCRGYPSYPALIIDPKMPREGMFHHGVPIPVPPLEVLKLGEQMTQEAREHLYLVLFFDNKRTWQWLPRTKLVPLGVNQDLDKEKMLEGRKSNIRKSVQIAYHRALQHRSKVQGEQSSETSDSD
# [3] = molecular target: Muscarinic acetylcholine receptor M2 (Homo sapiens) (UniProt P08172); assay: Inhibition of M2 receptor (unknown origin) at 10 uM relative to control
# Sequence of Muscarinic acetylcholine receptor M2 (Homo sapiens) (P08172 whole entry): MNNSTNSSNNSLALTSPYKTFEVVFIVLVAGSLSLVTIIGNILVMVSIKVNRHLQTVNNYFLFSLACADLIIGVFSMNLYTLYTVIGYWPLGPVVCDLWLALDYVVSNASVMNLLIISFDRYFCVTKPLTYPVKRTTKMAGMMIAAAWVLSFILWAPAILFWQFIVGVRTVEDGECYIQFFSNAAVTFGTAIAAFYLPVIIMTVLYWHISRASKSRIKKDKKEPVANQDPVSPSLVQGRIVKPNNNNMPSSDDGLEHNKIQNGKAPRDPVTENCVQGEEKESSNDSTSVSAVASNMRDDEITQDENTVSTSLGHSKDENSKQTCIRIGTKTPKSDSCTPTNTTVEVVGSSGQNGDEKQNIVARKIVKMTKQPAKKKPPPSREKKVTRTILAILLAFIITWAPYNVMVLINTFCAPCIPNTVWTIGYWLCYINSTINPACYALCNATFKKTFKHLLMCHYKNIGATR
# [4] = molecular target: Transcription initiation factor TFIID subunit 1 (Homo sapiens) (UniProt P21675); conditions: dose 10.0 µM
# Sequence of Transcription initiation factor TFIID subunit 1 (Homo sapiens) (P21675 whole entry, the tested form may be a part): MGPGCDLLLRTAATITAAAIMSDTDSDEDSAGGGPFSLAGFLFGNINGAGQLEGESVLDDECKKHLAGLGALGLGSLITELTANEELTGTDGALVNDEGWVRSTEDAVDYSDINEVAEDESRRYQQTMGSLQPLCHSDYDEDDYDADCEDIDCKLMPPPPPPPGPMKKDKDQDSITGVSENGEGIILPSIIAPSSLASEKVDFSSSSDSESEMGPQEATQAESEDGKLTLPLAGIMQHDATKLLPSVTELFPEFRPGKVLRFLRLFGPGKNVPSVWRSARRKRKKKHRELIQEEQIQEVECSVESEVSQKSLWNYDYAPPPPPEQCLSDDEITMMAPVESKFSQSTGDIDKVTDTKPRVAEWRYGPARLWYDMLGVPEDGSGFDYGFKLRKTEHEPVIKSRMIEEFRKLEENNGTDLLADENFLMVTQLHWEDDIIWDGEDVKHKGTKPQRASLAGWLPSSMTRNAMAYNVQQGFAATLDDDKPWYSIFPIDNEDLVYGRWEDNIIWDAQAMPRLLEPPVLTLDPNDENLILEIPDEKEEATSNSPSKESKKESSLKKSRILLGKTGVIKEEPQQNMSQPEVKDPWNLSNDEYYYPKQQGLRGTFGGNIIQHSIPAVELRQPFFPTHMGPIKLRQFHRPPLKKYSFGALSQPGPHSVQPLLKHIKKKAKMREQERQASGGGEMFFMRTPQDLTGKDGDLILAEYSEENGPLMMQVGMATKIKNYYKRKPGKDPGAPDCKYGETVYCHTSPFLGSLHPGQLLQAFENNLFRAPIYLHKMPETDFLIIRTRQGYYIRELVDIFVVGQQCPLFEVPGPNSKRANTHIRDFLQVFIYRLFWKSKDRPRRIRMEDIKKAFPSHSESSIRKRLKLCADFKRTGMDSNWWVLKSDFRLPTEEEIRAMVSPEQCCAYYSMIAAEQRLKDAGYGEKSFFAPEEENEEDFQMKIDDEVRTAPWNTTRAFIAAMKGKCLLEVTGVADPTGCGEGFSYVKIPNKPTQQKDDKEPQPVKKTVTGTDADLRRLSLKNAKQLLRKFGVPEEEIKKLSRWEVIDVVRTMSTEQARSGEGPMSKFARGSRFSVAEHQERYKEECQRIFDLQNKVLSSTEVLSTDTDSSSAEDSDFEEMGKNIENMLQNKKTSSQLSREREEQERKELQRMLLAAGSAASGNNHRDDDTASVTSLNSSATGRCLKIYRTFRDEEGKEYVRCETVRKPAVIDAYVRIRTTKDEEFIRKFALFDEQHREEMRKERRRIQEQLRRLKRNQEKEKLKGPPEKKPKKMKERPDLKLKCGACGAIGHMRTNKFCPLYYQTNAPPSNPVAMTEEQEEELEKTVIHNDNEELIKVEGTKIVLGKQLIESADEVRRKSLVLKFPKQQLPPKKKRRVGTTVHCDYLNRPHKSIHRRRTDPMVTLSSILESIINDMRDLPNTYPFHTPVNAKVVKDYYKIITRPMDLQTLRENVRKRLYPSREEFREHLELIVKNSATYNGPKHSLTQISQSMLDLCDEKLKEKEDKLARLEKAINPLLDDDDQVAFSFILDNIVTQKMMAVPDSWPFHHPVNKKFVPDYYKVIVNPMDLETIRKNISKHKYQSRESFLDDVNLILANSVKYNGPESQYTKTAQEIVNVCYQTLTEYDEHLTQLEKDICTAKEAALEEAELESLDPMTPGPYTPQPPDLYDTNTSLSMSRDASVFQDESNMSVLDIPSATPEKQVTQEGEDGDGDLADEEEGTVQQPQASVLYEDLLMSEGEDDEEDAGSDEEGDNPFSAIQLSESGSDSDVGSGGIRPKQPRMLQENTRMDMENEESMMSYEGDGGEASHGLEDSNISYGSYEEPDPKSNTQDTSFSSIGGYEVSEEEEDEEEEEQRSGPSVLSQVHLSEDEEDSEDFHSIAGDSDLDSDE
# [5] = molecular target: Bromodomain adjacent to zinc finger domain protein 1A (Homo sapiens) (UniProt Q9NRL2); conditions: dose 10.0 µM
# [6] = molecular target: Bromodomain testis-specific protein (Homo sapiens) (UniProt Q58F21); conditions: dose 10.0 µM
# [7] = molecular target: Protein polybromo-1 (Homo sapiens) (UniProt Q86U86); conditions: dose 10.0 µM
# [8] = molecular target: Transcription initiation factor TFIID subunit 1-like (Homo sapiens) (UniProt Q8IZX4); conditions: dose 10.0 µM
# Sequence of Transcription initiation factor TFIID subunit 1-like (Homo sapiens) (Q8IZX4 whole entry): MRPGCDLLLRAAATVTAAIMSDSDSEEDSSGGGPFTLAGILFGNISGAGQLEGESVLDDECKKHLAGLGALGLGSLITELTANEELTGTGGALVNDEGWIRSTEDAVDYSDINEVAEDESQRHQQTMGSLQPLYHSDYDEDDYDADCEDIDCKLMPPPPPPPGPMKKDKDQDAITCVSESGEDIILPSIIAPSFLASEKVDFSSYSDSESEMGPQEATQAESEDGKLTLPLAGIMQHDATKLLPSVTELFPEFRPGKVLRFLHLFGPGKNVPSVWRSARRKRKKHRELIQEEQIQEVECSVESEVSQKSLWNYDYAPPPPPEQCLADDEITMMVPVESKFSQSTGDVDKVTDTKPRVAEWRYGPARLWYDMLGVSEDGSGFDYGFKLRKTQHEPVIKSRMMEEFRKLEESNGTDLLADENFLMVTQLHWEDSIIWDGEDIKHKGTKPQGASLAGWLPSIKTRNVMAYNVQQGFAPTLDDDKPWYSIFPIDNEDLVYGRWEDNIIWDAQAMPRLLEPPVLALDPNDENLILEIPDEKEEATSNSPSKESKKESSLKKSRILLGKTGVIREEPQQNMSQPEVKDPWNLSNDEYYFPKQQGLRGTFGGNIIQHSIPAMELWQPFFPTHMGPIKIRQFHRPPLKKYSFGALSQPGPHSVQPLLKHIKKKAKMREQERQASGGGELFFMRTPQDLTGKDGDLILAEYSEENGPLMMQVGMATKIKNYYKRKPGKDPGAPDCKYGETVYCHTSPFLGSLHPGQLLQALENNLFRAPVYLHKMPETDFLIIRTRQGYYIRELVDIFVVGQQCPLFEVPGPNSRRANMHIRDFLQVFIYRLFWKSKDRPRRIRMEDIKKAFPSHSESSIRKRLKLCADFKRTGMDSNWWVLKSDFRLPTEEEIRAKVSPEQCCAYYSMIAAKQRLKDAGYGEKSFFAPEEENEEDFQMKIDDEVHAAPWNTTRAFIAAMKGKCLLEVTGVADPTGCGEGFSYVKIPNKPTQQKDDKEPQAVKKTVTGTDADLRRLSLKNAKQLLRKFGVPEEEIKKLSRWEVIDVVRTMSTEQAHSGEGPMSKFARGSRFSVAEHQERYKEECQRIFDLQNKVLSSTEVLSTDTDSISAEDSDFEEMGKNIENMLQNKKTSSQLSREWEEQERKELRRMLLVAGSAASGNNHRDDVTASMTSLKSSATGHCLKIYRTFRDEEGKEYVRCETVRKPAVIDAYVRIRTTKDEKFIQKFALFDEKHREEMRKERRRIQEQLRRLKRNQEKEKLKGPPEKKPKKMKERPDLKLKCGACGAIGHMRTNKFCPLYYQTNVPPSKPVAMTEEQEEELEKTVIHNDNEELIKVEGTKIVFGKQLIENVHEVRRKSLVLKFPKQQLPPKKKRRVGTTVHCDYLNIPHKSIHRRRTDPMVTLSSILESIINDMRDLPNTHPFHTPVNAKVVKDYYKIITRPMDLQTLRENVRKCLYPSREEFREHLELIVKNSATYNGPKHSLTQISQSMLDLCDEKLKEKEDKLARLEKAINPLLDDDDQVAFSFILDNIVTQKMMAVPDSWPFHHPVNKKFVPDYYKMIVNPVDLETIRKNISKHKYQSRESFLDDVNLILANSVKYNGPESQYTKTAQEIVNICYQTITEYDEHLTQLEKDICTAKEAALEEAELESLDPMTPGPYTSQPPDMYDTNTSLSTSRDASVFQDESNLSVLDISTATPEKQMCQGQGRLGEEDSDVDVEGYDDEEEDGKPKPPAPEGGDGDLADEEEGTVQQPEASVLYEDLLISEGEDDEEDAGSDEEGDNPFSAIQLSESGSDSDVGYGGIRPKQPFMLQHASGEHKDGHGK
# [9] = molecular target: Transcription intermediary factor 1-beta (Homo sapiens) (UniProt Q13263); conditions: dose 10.0 µM
# Sequence of Transcription intermediary factor 1-beta (Homo sapiens) (Q13263 whole entry): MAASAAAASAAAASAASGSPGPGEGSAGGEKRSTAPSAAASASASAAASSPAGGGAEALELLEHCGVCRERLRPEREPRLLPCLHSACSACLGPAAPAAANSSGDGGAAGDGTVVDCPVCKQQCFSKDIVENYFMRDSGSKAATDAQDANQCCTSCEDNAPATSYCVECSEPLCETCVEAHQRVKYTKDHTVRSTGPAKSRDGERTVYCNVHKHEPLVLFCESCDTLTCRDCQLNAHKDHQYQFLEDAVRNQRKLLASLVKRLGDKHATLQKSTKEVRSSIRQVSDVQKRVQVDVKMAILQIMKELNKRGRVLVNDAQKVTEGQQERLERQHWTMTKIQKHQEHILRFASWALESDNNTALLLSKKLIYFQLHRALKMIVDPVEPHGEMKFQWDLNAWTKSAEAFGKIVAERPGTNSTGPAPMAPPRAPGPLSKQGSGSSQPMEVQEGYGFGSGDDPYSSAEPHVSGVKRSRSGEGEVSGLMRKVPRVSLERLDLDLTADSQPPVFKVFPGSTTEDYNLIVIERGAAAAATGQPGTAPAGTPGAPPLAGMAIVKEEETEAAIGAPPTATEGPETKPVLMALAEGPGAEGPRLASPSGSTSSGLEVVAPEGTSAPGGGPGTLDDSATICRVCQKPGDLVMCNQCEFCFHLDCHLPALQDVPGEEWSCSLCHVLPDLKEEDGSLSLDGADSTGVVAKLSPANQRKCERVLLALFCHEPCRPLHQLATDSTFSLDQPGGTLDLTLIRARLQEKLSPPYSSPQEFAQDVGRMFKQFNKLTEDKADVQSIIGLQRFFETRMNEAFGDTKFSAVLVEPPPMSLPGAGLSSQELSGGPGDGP
# [10] = molecular target: Bromodomain and WD repeat-containing protein 1 (Homo sapiens) (UniProt Q9NSI6); conditions: dose 10.0 µM
compound,measurement,setting,value
COc1cc2c(cc1NS(=O)(=O)c1ccc(Br)cc1C)n(C)c(=O)n2C,IC50,[1],Not Active
same,deltaS,[2],0.002 kcal/mol/K
same,TdeltaS,Peregrin (Homo sapiens),-3.34 kcal/mol
same,inhibition,[3],9%
same,ΔTm,[4],0.2 °C
same,ΔTm,[5],0.15 °C
same,ΔTm,[6],0.4 °C
same,ΔTm,[7],0.2 °C
same,ΔTm,[8],0.3 °C
same,ΔTm,[9],0.2 °C
same,ΔTm,[10],1 °C
